Patent publication US20260028334A1, “N-(3-(BENZO[B]THIOPHENE-2-CARBOXAMIDO)-PHENYL)-2,3-DIHYDROBENZO[B][1,4]DIOXINE-6-CARBOXAMIDE DERIVATIVES AND RELATED COMPOUNDS AS LACTATE/ATP PRODUCTION INHIBITORS FOR THE TREATMENT OF CANCER” (WMT Aktiengesellschaft, priority 2022, published 2026)

Experiments:
Format in all cases: cell-based
HIF1a = HIF1a (Homo sapiens (Human), UniProt Q16665); assay: Western Blot analysis of HIF1a; details: HeLa cells, 24 hours, 0.1, 0.3 and 1 μM, normoxic and hypoxic conditions, FIG. 4
Protocol: Western Blot analysis was used to detect amounts of specific protein in differently treated cells. Proteins are separated by size, transferred onto a nitrocellulose membrane and incubated with protein specific antibodies. The density of the observed band is proportional to the amount of the specific protein inside the cell.
Cells were plated at 4×10^6 (for hypoxia) or 3×10^6 (for normoxia) cells per […] plate in medium of high glucose DMEM (PAN) supplemented with 10% FBS (PAN), 2 mM glutamine-alanine (PAN), 2 mM pyruvate (Sigma) and 10 ml/L penicillin-streptomycin (PAN), and grown at 37° C. in 0.5% O2, 5% CO2 and 75% humidity. For hypoxia, cells were grown and treated in the Whitley H35 Hypoxystation (Don Whitley Scientific) at 37° C. in 0.5% O2, 5% CO2 and 75% humidity. Next day, the cells were treated with test compounds (FIG. 4: compounds of example 3/8 and 10 at concentrations 0.1, 0.3 and 1 μM, Bafilomycin A at 20 nM; FIG. 5: compounds of example 3/16, 3/8 and 10 at concentrations 10, 30 and 100 nM, Bafilomycin A at 20 nM), as well as with vehicle (DMSO) only, for 24 h. […] Protein concentration of the sample was measured using the DC Protein Assay Kit (Biorad, 5000112), 22 μg of protein extract per well was loaded onto a precast SDS page gel (Biorad, 1704273). […] The chemiluminescence was measured using chemiluminescent substrate (#34580, Thermo Scientific).

[1] = test system: ER stress markers CHAC and CHOP/DDIT3; assay: Gene expression analysis by qPCR (FIG. 8E-8AB); details: Panc02 and SKOV3 cells, 10 nM, 0.5, 1, 2 and 4 hours
Protocol: Cells were plated at 40,000 cells per ml in medium of high glucose DMEM (PAN) supplemented with 10% FBS (PAN), 2 mM glutamine-alanine (PAN), 2 mM pyruvate (Sigma) and 10 mL/L penicillin-streptomycin (PAN), and grown at 37° C. in 0.5% O2, 5% CO2 and 75% humidity. Next day, cells were induced with test compounds (FIG. 3: compounds of example 3/16, 3/8, 10 at 10 nM; FIG. 8E-8AB: compounds of example 3/16, 3/8, 10, 3/19, 30 and 30/2 at 10 nM) 0.5, 1, 2 and 4 hours, as well as with vehicle (DMSO) only. After this time, the cells were lysed according to protocol (Promega, SV 96 Total RNA Isolation System, #Z3505). After transferring the lysate to a 96-well-RNA binding plate, RNA was isolated and put at approx. 1 μg into cDNA synthesis using LunaScript RT SuperMix Kit (NEB, #E3010). The resulting cDNA was diluted 1:5 and used for qPCR Analysis (Taqman). Luna Universal Probe qPCR Master Mix (NEB, #M3004) is used as 2× reaction mix to which the diluted cDNA is added. The qPCR analysis was performed using QuantStudio™ 6 Flex real-time PCR systems (Thermo Fisher Scientific).
A set of primers plus probe for each gene of interest was purchased at IDT (Integrated DNA Technologies).

[2] = test system: HeLa, 4T1, LLC1, A549, MDA-MB-231 and MiaPaCa2 cells; assay: Assay for inhibition of ATP production (FIG. 1); details: 48 hours treatment, 1.5 to 10000 nM
Protocol: (§1) The assay determines the amount of ATP in cells in culture.
(§2) Cells were plated at 4,000 per well in 96-well plate in a medium of high glucose DMEM (PAN) supplemented with 10% FBS (PAN), 2 mM glutamine-alanine (PAN), 2 mM pyruvate (Sigma) and 10 mL/L penicillin-streptomycin and grown at 37° C. in 0.5% O2, 5% CO2 and 75% humidity. For hypoxia, cells were grown and treated in the Whitley H35 Hypoxystation (Don Whitley Scientific) at 37° C. in 0.5% O2, 5% CO2 and 75% humidity. The next day, cells were induced with test compounds (FIG. 1: compounds of examples 3/16, 3/8, 10 at 10000, 3333, 1111, 370, 123, 41, 14, 5 and 1.5 nM; FIGS. 8A and 8B: compounds of example 3/19, 30 and 30/2 at 10000, 3333, 1111, 370, 123, 41, 14, 5 and 1.5 nM), as well as with vehicle (DMSO) only, for 48 hours. After this time, the medium was removed from the cells and intracellular ATP levels were determined using the Promega CellTiter-Glo 2.0 assay protocol (Promega, G9241). To estimate the effect of compounds on the ATP production, sample values were compared to the values of DMSO only. IC50 values were generated by plotting the luciferase counts against compound concentration.

Panc02 and SKOV3 cells = assay: Assay for inhibition of ATP production (FIGS. 8A and 8B); details: 48 hours treatment, 1.5 to 10000 nM
Protocol: as §1, §2

HIF1a protein levels (HIF1a)	Structure (SMILES)	ER stress markers CHAC and CHOP/DDIT3 [1]	ATP production level [2]	ATP production level (Panc02 and SKOV3 cells)
dose-dependent reduction	O=C(Nc1ccc(F)c(NC(=O)c2cc3ccc(OCCCN4CCCC4)cc3s2)c1)c1ccc2c(c1)OCCO2 [3/8]	time-dependent upregulation	dose-dependent reduction	dose-dependent reduction
–	Cc1ccc(NC(=O)c2ccc3c(c2)OCCO3)cc1NC(=O)c1cc2cccnc2s1 [3/16]	time-dependent upregulation	dose-dependent reduction	dose-dependent reduction
